Source: patent US11116760B2 (Gilead Sciences, Inc., priority 2018, dated 2021)

Biological target: α4β7 integrin (Homo sapiens (Human), UniProt P13612+P26010)
Test: α4β7 Integrin Cell Capture Assay
Format: cell-based
[1] = RPMI8866 cells captured on MadCAM-1 extracellular domain-coated plate
[2] = Table 2, capture of α4β7 expressing RPM18866 cells on MadCAM-1 extracellular domain-coated plate
[3] = Table 1, capture of α4β7 expressing RPM18866 cells on MadCAM-1 extracellular domain-coated plate

α4β7 integrin, sequence (P13612 34-1032): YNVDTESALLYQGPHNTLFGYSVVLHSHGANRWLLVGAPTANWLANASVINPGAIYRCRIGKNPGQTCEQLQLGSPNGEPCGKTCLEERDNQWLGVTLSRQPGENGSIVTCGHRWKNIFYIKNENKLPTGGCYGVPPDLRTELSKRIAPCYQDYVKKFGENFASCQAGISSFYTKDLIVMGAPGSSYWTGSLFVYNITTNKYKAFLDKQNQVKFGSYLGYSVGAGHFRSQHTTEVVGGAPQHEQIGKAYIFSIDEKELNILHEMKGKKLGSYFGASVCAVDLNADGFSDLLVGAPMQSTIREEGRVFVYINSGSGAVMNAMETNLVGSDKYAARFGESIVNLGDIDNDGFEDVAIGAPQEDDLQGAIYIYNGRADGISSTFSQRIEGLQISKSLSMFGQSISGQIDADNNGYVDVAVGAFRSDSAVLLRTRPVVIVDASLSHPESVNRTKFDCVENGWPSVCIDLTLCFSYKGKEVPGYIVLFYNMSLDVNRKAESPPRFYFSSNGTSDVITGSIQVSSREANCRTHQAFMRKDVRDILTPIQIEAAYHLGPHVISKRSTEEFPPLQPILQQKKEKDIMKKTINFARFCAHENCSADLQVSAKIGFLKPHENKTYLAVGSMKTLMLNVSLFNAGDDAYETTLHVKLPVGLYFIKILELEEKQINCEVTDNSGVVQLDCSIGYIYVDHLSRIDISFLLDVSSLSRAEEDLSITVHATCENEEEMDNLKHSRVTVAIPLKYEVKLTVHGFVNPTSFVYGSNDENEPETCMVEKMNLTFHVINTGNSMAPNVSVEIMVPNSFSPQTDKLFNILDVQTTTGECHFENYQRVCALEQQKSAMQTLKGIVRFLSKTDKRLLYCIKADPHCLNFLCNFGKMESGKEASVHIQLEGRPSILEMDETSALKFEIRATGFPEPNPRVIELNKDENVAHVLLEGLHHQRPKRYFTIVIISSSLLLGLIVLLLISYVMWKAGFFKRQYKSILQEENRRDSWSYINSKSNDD
α4β7 integrin, sequence (P26010 20-798): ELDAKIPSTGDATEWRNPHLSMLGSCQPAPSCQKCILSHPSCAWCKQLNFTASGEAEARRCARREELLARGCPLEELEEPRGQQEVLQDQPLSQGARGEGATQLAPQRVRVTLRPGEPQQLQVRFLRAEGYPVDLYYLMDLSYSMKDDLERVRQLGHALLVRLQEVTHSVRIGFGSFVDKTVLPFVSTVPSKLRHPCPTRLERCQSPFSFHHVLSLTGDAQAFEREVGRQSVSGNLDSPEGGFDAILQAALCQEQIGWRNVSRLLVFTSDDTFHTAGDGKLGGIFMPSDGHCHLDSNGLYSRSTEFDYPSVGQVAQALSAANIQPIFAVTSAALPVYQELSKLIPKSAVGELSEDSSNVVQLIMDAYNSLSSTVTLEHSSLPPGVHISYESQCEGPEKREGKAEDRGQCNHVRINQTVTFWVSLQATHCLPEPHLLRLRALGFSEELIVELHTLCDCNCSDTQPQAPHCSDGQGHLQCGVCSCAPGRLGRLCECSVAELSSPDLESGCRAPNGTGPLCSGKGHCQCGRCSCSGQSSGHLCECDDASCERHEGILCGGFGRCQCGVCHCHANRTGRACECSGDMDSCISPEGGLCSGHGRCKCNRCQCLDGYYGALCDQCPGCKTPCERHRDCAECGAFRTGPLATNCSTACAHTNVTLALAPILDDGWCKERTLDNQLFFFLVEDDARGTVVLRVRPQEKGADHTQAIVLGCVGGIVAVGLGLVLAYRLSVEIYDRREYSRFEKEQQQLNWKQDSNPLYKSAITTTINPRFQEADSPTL

Row | SMILES | EC50 [2] | EC50 [3] | other results
1 | Cc1cc(N2CCOC[C@@H]2C(F)(F)F)cc(C)c1C(=O)N[C@@H](Cc1ccc(-c2c(C(F)(F)F)cc(C)n(C)c2=O)c2ncccc12)C(=O)O [Example 446] |  |  | EC50 [1]: 0.318 nM
2 | Cc1c(Cl)cn(C)c(=O)c1-c1ccc(C[C@H](NC(=O)c2c(F)cc(N3CCOC[C@@H]3C(F)(F)F)cc2F)C(=O)O)c2cccnc12 [Example 165] | 0.4 nM |  | 
3 | CC[C@@H](Nc1cc(F)c(C(=O)N[C@@H](Cc2ccc(-c3c(C(F)F)cc(C)n(C)c3=O)c3ncccc23)C(=O)O)c(F)c1)C(F)(F)F [Example 167] | 0.4 nM |  | 
4 | CCOCc1cc(OC)c(-c2ccc(C[C@H](NC(=O)c3c(F)cc(C(N)=O)cc3F)C(=O)O)c3cccnc23)c(OC)c1 [Example 43, (S)-2-(4-carbamoyl-2,6-difluorobenzamido)-3-(8-(4-(ethoxymethyl)-2,6-dimethoxyphenyl)quinolin-5-yl)propanoic acid] |  | 4.6 nM | 
5 | Cc1cc(C)n(C)c(=O)c1-c1ccc(C[C@H](NC(=O)c2c(F)cc(N[C@H](C3CC3)C(F)(F)F)cc2F)C(=O)O)c2cccnc12 [Example 342] | 0.7 nM |  | 
6 | N#Cc1ccc(-c2ccc(C[C@H](NC(=O)c3c(F)cc(N4CCNC[C@@H]4C(F)(F)F)cc3F)C(=O)O)c3cccnc23)c(Cl)c1 [Example 77, (S)-3-(8-(2-chloro-4-cyanophenyl)quinolin-5-yl)-2-(2,6-difluoro-4-((R)-2-(trifluoromethyl)piperazin-1-yl)benzamido)propanoic acid] |  | 90.7 nM | 
7 | Cc1c(-c2ccc(C[C@H](NC(=O)c3c(F)cc(N4CCS(=O)(=O)[C@@H](C)C4)cc3F)C(=O)O)c3cccnc23)c(=O)n(C)c(=O)n1C [Example 226] | 1.1 nM |  | 
8 | Cc1cc(C)n(C)c(=O)c1-c1ccc(C[C@H](NC(=O)c2c(F)cc(N3CCCC[C@@H]3C(F)(F)F)cc2F)C(=O)O)c2cccnc12 [Example 202] | 1.5 nM |  | 
9 | O=C(N[C@@H](Cc1ccc(-c2ccc3c4c(ccnc24)CCO3)c2ncccc12)C(=O)O)c1c(F)cccc1F [Example 306] | 11.2 nM |  | 
10 | CC[C@@H](N1CCCc2c1cc(F)c(C(=O)N[C@@H](Cc1ccc(-c3c(C(F)(F)F)cc(C)n(C)c3=O)c3ncccc13)C(=O)O)c2F)C(F)(F)F [Example 146, (S)-2-(5,7-difluoro-1-((R)-1,1,1-trifluorobutan-2-yl)-1,2,3,4-tetrahydroquinoline-6-carboxamido)-3-(8-(1,6-dimethyl-2-oxo-4-(trifluoromethyl)-1,2-dihydropyridin-3-yl)quinolin-5-yl)propanoic acid] |  | 0.6 nM | 
11 | [2H]C([2H])([2H])c1cc(N2CCOC[C@@H]2C(F)(F)F)cc(F)c1C(=O)N[C@@H](Cc1ccc(-c2c(C(F)(F)F)cc(C)n(C)c2=O)c2ncccc12)C(=O)O [Example 462] |  |  | EC50 [1]: 0.102 nM
12 | C[C@@H](Nc1cc(F)c(C(=O)N[C@@H](Cc2ccc(-c3nc(N)ccc3C(F)(F)F)c3ncccc23)C(=O)O)c(F)c1)C(F)(F)F [Example 238] | 2.8 nM |  | 
13 | Cc1cc(N2CCOC[C@@H]2C(F)(F)F)cc(Cl)c1C(=O)N[C@@H](Cc1ccc(-c2c(C(F)(F)F)cc(C)n(C)c2=O)c2ncccc12)C(=O)O [Example 160] | 0.3 nM |  | 
14 | N#Cc1ccc(-c2ccc(C[C@H](NC(=O)c3c(Cl)cc4cc(C5CC5)[nH]c4c3Cl)C(=O)O)c3cccnc23)c(Cl)c1 [Example 228] | 57.8 nM |  | 
15 | COc1cnn(C)c(=O)c1-c1ccc(C[C@H](NC(=O)c2c(F)cccc2F)C(=O)O)c2cccnc12 [Example 70, (S)-2-(2,6-difluorobenzamido)-3-(8-(5-methoxy-2-methyl-3-oxo-2,3-dihydropyridazin-4-yl)quinolin-5-yl)propanoic acid] |  | 10.7 nM | 
16 | Cn1c(=O)n(-c2ccc(C[C@H](NC(=O)c3c(F)cc(N4CCOC[C@@H]4C(F)(F)F)cc3F)C(=O)O)c3cccnc23)c(=O)c2ccc(F)cc21 [Example 423] |  |  | EC50 [1]: 0.08 nM
17 | CC[C@@H](Nc1cc(F)c(C(=O)N[C@@H](Cc2ccc(-c3nc(N)ccc3C(F)(F)F)c3ncccc23)C(=O)O)c(F)c1)C(F)(F)F [Example 208] | 1.8 nM |  | 
18 | Cn1c(=O)n(-c2ccc(C[C@H](NC(=O)c3c(F)cc(N4CCOC[C@@H]4C(F)(F)F)cc3Cl)C(=O)O)c3cccnc23)c(=O)c2ccncc21 [Example 414] |  |  | EC50 [1]: 0.048 nM
19 | CC[C@@H](Nc1cc(F)c(C(=O)N[C@@H](Cc2ccc(-n3c(=O)c4cc(N(C)C)ccc4n(C)c3=O)c3ncccc23)C(=O)O)c(F)c1)C(F)(F)F [Example 108, (S)-2-(2,6-difluoro-4-(((R)-1,1,1-trifluorobutan-2-yl)amino)benzamido)-3-(8-(6-(dimethylamino)-1-methyl-2,4-dioxo-1,4-dihydroquinazolin-3(2H)-yl)quinolin-5-yl)propanoic acid] |  | 1 nM | 
20 | CCOCc1cc(OC)c(-c2ccc(C[C@H](NC(=O)c3c(F)cccc3F)C(=O)O)c3cc(C(F)(F)F)cnc23)c(OC)c1 [Example 37, (S)-2-(2,6-difluorobenzamido)-3-(8-(4-(ethoxymethyl)-2,6-dimethoxyphenyl)-3-(trifluoromethyl)quinolin-5-yl)propanoic acid] |  | 69.6 nM | 

Row | SMILES | EC50 [2] | EC50 [3] | other results
21 | CC[C@@H](Nc1cc(F)c(C(=O)N[C@@H](Cc2ccc(-c3nc(C)ccc3Cl)c3ncccc23)C(=O)O)c(F)c1)C(F)(F)F [Example 321] | 15.8 nM |  | 
22 | Cc1noc(C)c1-c1ccc(C[C@H](NC(=O)c2c(F)cc(NS(=O)(=O)c3ccc(-c4ccnc(F)c4)cc3)cc2F)C(=O)O)c2cccnc12 [Example 55, (S)-2-(2,6-difluoro-4-((4-(2-fluoropyridin-4-yl)phenyl)sulfonamido)benzamido)-3-(8-(3,5-dimethylisoxazol-4-yl)quinolin-5-yl)propanoic acid] |  | 27.4 nM | 
23 | CC[C@@H](Nc1cc(F)c(C(=O)N[C@@H](Cc2ccc(-c3c(C(F)(F)F)cc(F)c4cccnc34)c3ncccc23)C(=O)O)c(F)c1)C(F)(F)F [Example 256] | 3.5 nM |  | 
24 | N#Cc1ccc(-c2ccc(C[C@H](NC(=O)c3c(Cl)cc4nc[nH]c4c3Cl)C(=O)O)c3cccnc23)c(Cl)c1 [Example 323] | 17.1 nM |  | 
25 | N#Cc1ccc(-c2c(F)cc(C[C@H](NC(=O)c3c(F)cccc3F)C(=O)O)c3cccnc23)c(Cl)c1 [Example 34, (2S)-3-(8-(2-chloro-4-cyanophenyl)-7-fluoroquinolin-5-yl)-2-(2,6-difluorobenzamido)propanoic acid] |  | 39.5 nM | 
26 | Cc1cc(C(F)(F)F)c(-c2ccc(C[C@H](NC(=O)c3c(F)cc(N4CCOC[C@@H]4CC(F)F)cc3F)C(=O)O)c3cccnc23)c(=O)n1C [Example 130, (S)-2-(4-((S)-3-(2,2-difluoroethyl)morpholino)-2,6-difluorobenzamido)-3-(8-(1,6-dimethyl-2-oxo-4-(trifluoromethyl)-1,2-dihydropyridin-3-yl)quinolin-5-yl)propanoic acid] |  | 0.5 nM | 
27 | CC[C@@H](Nc1cc(C)c(C(=O)N[C@@H](Cc2ccc(-c3c(C(F)(F)F)cc(C)n(C)c3=O)c3ncccc23)C(=O)O)c(F)c1)C(F)(F)F [Example 142, (S)-3-(8-(1,6-dimethyl-2-oxo-4-(trifluoromethyl)-1,2-dihydropyridin-3-yl)quinolin-5-yl)-2-(2-fluoro-6-methyl-4-(((R)-1,1,1-trifluorobutan-2-yl)amino)benzamido)propanoic acid] |  | 0.2 nM | 
28 | Cc1cc(C(F)(F)F)c(-c2ccc(C[C@H](NC(=O)c3c(F)cc(N4CC5CCC4CO5)cc3F)C(=O)O)c3cccnc23)c(=O)n1C (stereo partly drawn) [Example 257] | 3.5 nM |  | 
29 | CCCNc1cc(F)c(C(=O)N[C@@H](Cc2ccc(-c3c(C(F)(F)F)cc(C)n(C)c3=O)c3ncccc23)C(=O)O)c(F)c1 [Example 133, (S)-2-(2,6-difluoro-4-(propylamino)benzamido)-3-(8-(1,6-dimethyl-2-oxo-4-(trifluoromethyl)-1,2-dihydropyridin-3-yl)quinolin-5-yl)propanoic acid] |  | 3.2 nM | 
30 | Cc1cc(C(F)(F)F)c(-c2ccc(C[C@H](NC(=O)c3c(F)cc(N4CCOC[C@H]4CC(F)F)cc3F)C(=O)O)c3cccnc23)c(=O)n1C [Example 250] | 3.1 nM |  | 
31 | O=C(N[C@@H](Cc1ccc(-c2cccc3c2OCCC3)c2ncccc12)C(=O)O)c1c(F)cc(NS(=O)(=O)c2ccc(-c3ccnc(F)c3)cc2)cc1F [Example 62, (S)-3-(8-(chroman-8-yl)quinolin-5-yl)-2-(2,6-difluoro-4-((4-(2-fluoropyridin-4-yl)phenyl)sulfonamido)benzamido)propanoic acid] |  | 1.8 nM | 
32 | CC[C@@H](Nc1cc(F)c(C(=O)N[C@@H](Cc2ccc(-c3cc4ccccc4n(C)c3=O)c3ncccc23)C(=O)O)c(F)c1)C(F)(F)F [Example 182] | 0.9 nM |  | 
33 | Cc1cnc(-c2c(F)cc(C[C@H](NC(=O)c3c(C)cc(N4CCOC[C@@H]4C(F)(F)F)cc3F)C(=O)O)c3cccnc23)nc1C [Example 465] |  |  | EC50 [1]: 1.53 nM
34 | Cc1cc(C)c(-c2ccc(C[C@H](NC(=O)c3c(F)cccc3F)C(=O)O)c3cccnc23)nc1C [Example 11, (S)-2-(2,6-difluorobenzamido)-3-(8-(3,5,6-trimethylpyridin-2-yl)quinolin-5-yl)propanoic acid] |  | 22.9 nM | 
35 | N#Cc1ccc(-c2ccc(C[C@H](NC(=O)c3c(F)cc(N4CCO[C@H](C(F)(F)F)C4)cc3F)C(=O)O)c3cccnc23)c(Cl)c1 [Example 85, (S)-3-(8-(2-chloro-4-cyanophenyl)quinolin-5-yl)-2-(2,6-difluoro-4-((S)-2-(trifluoromethyl)morpholino)benzamido)propanoic acid] |  | 25.4 nM | 
36 | Cc1nc2c(s1)c(=O)n(-c1ccc(C[C@H](NC(=O)c3c(C)cc(N4CCOC[C@@H]4C(F)(F)F)cc3F)C(=O)O)c3cccnc13)c(=O)n2C [Example 410] |  |  | EC50 [1]: 0.054 nM
37 | N#Cc1ccc(-c2ccc(C[C@H](NC(=O)c3c(Cl)cc4nc(C5CC5)[nH]c4c3Cl)C(=O)O)c3cccnc23)c(Cl)c1 [Example 179] | 37.7 nM |  | 
38 | Cc1cc(C(F)(F)F)c(-c2ccc(C[C@H](NC(=O)c3c(F)cc(N4CCC[C@@H]4C(F)(F)F)cc3F)C(=O)O)c3cccnc23)c(=O)n1C (atropisomer, axis not shown) [Example 485] |  |  | EC50 [1]: 0.233 nM
39 | N#Cc1ccc(-c2ccc(C[C@H](NC(=O)c3c(F)cc(N4CCOCC4C(F)(F)F)cc3F)C(=O)O)c3cccnc23)c(Cl)c1 (stereo partly drawn) [Example 81] |  | 6 nM | 
